From PubChem BioAssay AID1117276 (Broad Institute, 2014) come the findings set out here.

Records with an inconclusive call do not appear. The source made the active and inactive calls. The rule behind the calls is not given here.

The test concerns orthopoxvirus-infected cells, imaging factory/early/late reporters. The test is described as follows: orthopoxvirus gene expression and factory formation inhibitors, imaging, low MOI, factory DAPI readout, single point, dry powder (AID 1117276). The following applies: at 10 µM; stronger effect = higher value.

For the compound `C[C@@H](O)C#Cc1ccc2c(c1)O[C@@H](CN(C)Cc1ccc(-c3ccccc3)cc1)[C@@H](C)CN([C@@H](C)CO)S2(=O)=O`, the activity score, factory formation (DAPI) is 36 (inactive).
